The source of these data is patent EP1247803A2, “Indolinone compounds suitable for modulation of protein kinases” (Sugen, Inc., priority 1996, dated 1998).

For this assay, the target named is T1, FLK-1 receptor (Mus musculus, UniProt P35918).
T1 construct: expressed in transfected cells; host or cells: NIH3T3 C7#3
T1 sequence (P35918 20-1345): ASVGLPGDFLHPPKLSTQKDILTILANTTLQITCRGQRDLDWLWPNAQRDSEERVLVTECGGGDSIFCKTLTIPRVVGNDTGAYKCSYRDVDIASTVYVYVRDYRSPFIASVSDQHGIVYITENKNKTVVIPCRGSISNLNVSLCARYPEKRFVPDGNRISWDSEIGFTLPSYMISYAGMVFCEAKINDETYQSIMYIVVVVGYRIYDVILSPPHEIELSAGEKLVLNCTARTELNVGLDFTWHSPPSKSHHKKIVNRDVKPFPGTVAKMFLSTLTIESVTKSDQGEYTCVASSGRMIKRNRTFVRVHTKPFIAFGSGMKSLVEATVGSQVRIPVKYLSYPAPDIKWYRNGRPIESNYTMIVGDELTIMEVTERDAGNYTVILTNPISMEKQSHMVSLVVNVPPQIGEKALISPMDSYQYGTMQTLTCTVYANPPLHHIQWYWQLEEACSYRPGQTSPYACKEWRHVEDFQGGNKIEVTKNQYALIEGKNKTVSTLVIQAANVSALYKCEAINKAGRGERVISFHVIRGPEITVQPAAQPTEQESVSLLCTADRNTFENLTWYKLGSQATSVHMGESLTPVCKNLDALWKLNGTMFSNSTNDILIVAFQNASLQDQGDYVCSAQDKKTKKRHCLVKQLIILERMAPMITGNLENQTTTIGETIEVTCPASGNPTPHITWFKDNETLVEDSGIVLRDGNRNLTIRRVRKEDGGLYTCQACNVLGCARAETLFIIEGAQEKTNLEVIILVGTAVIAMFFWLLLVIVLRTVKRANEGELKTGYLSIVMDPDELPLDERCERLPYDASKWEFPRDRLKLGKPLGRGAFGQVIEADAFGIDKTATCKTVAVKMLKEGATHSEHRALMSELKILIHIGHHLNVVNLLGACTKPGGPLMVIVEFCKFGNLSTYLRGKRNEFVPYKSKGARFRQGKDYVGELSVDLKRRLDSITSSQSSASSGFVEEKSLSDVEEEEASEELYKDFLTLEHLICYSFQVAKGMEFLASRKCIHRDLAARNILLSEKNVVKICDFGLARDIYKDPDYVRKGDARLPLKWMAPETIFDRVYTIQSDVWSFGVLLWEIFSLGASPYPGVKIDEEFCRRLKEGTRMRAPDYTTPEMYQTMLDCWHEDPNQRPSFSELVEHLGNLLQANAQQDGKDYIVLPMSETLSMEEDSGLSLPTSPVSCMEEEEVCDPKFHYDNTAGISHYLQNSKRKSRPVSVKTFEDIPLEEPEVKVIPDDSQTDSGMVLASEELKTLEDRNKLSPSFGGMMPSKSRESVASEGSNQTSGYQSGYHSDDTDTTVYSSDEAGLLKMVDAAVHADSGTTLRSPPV
Briefly: FLK-1 ELISA (kinase activity of the FLK-1 receptor in FLK-1/NIH3T3 cells, VEGF stimulated). Format: cell-based. Put shortly:
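An ELISA using affinity-purified rabbit anti-FLK-1 antiserum on anti-rabbit IgG-coated plates measured VEGF-stimulated FLK-1 kinase activity. NIH3T3 C7#3 cells carrying FLK-1 were serum-starved (0.1% FBS) overnight, then exposed to compound (final 1:200 dilution, 0.5% DMSO) for two hours at 37 °C.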
Background: ELISA stands for enzyme-linked immunosorbent assay.
Turning to `O=C1Nc2c(Br)cc(Br)cc2C1=Cc1ccc([N+](=O)[O-])cc1` [10734/A06], the “Fik Kinase %Inhibition” value is reported as -6.4%.

As to `CCOc1cccc(C=C2C(=O)Nc3ccc(Br)c(C)c32)c1O` [10734/C02], the “Fik Kinase %Inhibition” value is -3.9%.

For the molecule `CNS(=O)(=O)c1ccc2c(c1)C(=Cc1ccc(O)c(Br)c1)C(=O)N2` [10734/D09], the “Fik Kinase %Inhibition” value was -11.6%.

Regarding `CC(C)(C)c1cc(C=C2C(=O)Nc3ccc(S(=O)(=O)Nc4ccc(C(F)(F)F)cc4)cc32)cc(C(C)(C)C)c1OCc1ccccc1` [10733/E05], the “Fik Kinase %Inhibition” value stood at 10.6%.

For `COc1c(C)cc(C=C2C(=O)Nc3ccc(S(=O)(=O)Nc4ccc(C(F)(F)F)cc4)cc32)cc1C` [10733/E06], the “Fik Kinase %Inhibition” value worked out at 13.5%.

Turning to `O=C1Nc2ccc(S(=O)(=O)Nc3ccc(C(F)(F)F)cc3)cc2C1=Cc1ccc([N+](=O)[O-])o1` [10718/E11], the “Fik Kinase %Inhibition” value is 12.1%.

In the case of `CCOc1cccc(C=C2C(=O)Nc3ccc(S(=O)(=O)Nc4ccc(C(F)(F)F)cc4)cc32)c1O` [10734/E02], the “Fik Kinase %Inhibition” value turned out to be 7.9%.

As for `O=C1Nc2ccc(S(=O)(=O)N3CCOCC3)cc2C1=Cc1cc(Br)ccc1O` [10733/F09], the “Fik Kinase %Inhibition” value was -2.1%.

As to `O=C1Nc2ccc(I)cc2C1=Cc1ccc(Br)s1` [10734/B11], the “Fik Kinase %Inhibition” value was 12.6%.

Turning to `CNS(=O)(=O)c1ccc2c(c1)C(=Cc1cc(Cl)cc(Cl)c1O)C(=O)N2` [10734/D03], the “Fik Kinase %Inhibition” value turned out to be 17.4%.

For the molecule `O=C1Nc2ccc(I)cc2C1=Cc1cccc(F)c1O` [10734/B08], the “Fik Kinase %Inhibition” value is recorded as -0.5%.

Regarding `O=C1Nc2ccc(CCCl)cc2C1=Cc1cc(Br)ccc1O` [10733/G09], the “Fik Kinase %Inhibition” value worked out at 77.8%.

For `COc1c([N+](=O)[O-])cc(C=C2C(=O)Nc3ccc(CCCl)cc32)cc1C(C)(C)C` [10733/G03], the “Fik Kinase %Inhibition” value was 24.7%.

Consider `Cc1c(Br)ccc2c1C(=Cc1cccc(F)c1O)C(=O)N2` [10734/C08], for which the “Fik Kinase %Inhibition” value is -34.2%.

Turning to `CCN(CC)c1ccc(C=C2C(=O)Nc3ccc(S(=O)(=O)NC)cc32)c(O)c1` [10734/D05], the “Fik Kinase %Inhibition” value is 2.4%.

Turning to `COC(=O)c1[nH]c(C)c(C=C2C(=O)Nc3ccc(S(=O)(=O)Nc4ccc(C(F)(F)F)cc4)cc32)c1C(=O)OC` [10718/E07], the “Fik Kinase %Inhibition” value is on record as 15.6%.

`O=C1Nc2ccc(S(=O)(=O)Nc3ccc(C(F)(F)F)cc3)cc2C1=Cc1cc([N+](=O)[O-])ccc1O` [10733/E10]: the “Fik Kinase %Inhibition” value is on record as 5.5%.

On to `CCOc1cccc(C=C2C(=O)Nc3c(Br)cc(Br)cc32)c1O` [10734/A02], for which the “Fik Kinase %Inhibition” value was found to be 4.1%.

On to `COc1c([N+](=O)[O-])cc(C=C2C(=O)Nc3ccc(S(=O)(=O)N4CCOCC4)cc32)cc1C(C)(C)C` [10733/F03], for which the “Fik Kinase %Inhibition” value was determined as 17.5%.

With `COc1c(C(C)(C)C)cc(C=C2C(=O)Nc3ccc(CCCl)cc32)cc1C(C)(C)C` [10733/G04], the “Fik Kinase %Inhibition” value is listed as 11.5%.

In the case of `CNS(=O)(=O)c1ccc2c(c1)C(=Cc1ccc(C(C)(C)C)cc1)C(=O)N2` [10734/D10], the “Fik Kinase %Inhibition” value stood at 11.1%.

On to `CCOc1cccc(C=C2C(=O)Nc3ccc(I)cc32)c1O` [10734/B02], for which the “Fik Kinase %Inhibition” value was determined as 8.5%.

Regarding `CC(C)(C)c1cc(C=C2C(=O)Nc3ccc(S(=O)(=O)N4CCOCC4)cc32)cc(I)c1OCc1ccccc1` [10733/F02], the “Fik Kinase %Inhibition” value was -15.7%.

Turning to `O=C1Nc2ccc(S(=O)(=O)Nc3ccc(C(F)(F)F)cc3)cc2C1=Cc1cc(Cl)cc(Cl)c1O` [10734/E03], the “Fik Kinase %Inhibition” value was 26.9%.

For `Cc1c(Br)ccc2c1C(=Cc1ccc([N+](=O)[O-])cc1)C(=O)N2` [10734/C06], the “Fik Kinase %Inhibition” value is -1.7%.

For the molecule `CC(C)(C)c1cc(C=C2C(=O)Nc3ccc(CCCl)cc32)cc(C(C)(C)C)c1OCc1ccccc1` [10733/G05], the “Fik Kinase %Inhibition” value worked out at 19.2%.

On to `CCOC(=O)CCc1c(C(=O)OCC)[nH]c(C=C2C(=O)Nc3ccc(S(=O)(=O)Nc4ccc(C(F)(F)F)cc4)cc32)c1CC(=O)OCC` [10718/E05], for which the “Fik Kinase %Inhibition” value worked out at 16.1%.

Consider `CCOc1cccc(C=C2C(=O)Nc3ccc(S(=O)(=O)NC)cc32)c1O` [10734/D02], for which the “Fik Kinase %Inhibition” value was -11.5%.

As to `COc1c(O)ccc(C=C2C(=O)Nc3ccc(S(=O)(=O)Nc4ccc(C(F)(F)F)cc4)cc32)c1[N+](=O)[O-]` [10733/E11], the “Fik Kinase %Inhibition” value was 5.5%.

In the case of `COc1cc(Br)cc(C=C2C(=O)Nc3ccc(S(=O)(=O)Nc4ccc(C(F)(F)F)cc4)cc32)c1O` [10733/E08], the “Fik Kinase %Inhibition” value is listed as -5.1%.

Consider `O=C1Nc2ccc(CCCl)cc2C1=Cc1cc([N+](=O)[O-])ccc1O` [10733/G10], for which the “Fik Kinase %Inhibition” value is given as 12.7%.

As to `Cc1cc(C=C2C(=O)Nc3ccc(CCCl)cc32)cc(C)c1OCc1ccccc1` [10733/G07], the “Fik Kinase %Inhibition” value was 19.5%.

`O=C1Nc2ccc(S(=O)(=O)Nc3ccc(C(F)(F)F)cc3)cc2C1=Cc1ccc2ccccc2c1O` [10718/E04]: the “Fik Kinase %Inhibition” value amounted to 15.1%.

Take `O=C1Nc2ccc(I)cc2C1=Cc1cc(Br)cc(Br)c1O` [10734/B07]: the “Fik Kinase %Inhibition” value came out at 9.1%.

Take `Cc1c(Br)ccc2c1C(=Cc1cc(Cl)ccc1O)C(=O)N2` [10734/C04]: the “Fik Kinase %Inhibition” value was -37.6%.

Regarding `CNS(=O)(=O)c1ccc2c(c1)C(=Cc1cccc(F)c1O)C(=O)N2` [10734/D08], the “Fik Kinase %Inhibition” value worked out at 2.5%.

For the molecule `O=C1Nc2c(Br)cc(Br)cc2C1=Cc1cc(Cl)cc(Cl)c1O` [10734/A03], the “Fik Kinase %Inhibition” value is given as 10.1%.

With `COc1c(O)ccc(C=C2C(=O)Nc3ccc(CCCl)cc32)c1[N+](=O)[O-]` [10733/G11], the “Fik Kinase %Inhibition” value is reported as 3.3%.

Consider `O=C1Nc2ccc(I)cc2C1=Cc1ccc(O)c(Br)c1` [10734/B09], for which the “Fik Kinase %Inhibition” value is -32.3%.

Consider `CCN(CC)c1ccc(C=C2C(=O)Nc3ccc(Br)c(C)c32)c(O)c1` [10734/C05], for which the “Fik Kinase %Inhibition” value was -10.3%.

With `Cc1[nH]c(C=C2C(=O)Nc3c(Br)cc(Br)cc32)c(Br)c1Br` [10717/A11], the “Fik Kinase %Inhibition” value is reported as -5.8%.

In the case of `Cc1c(Br)ccc2c1C(=Cc1cc(Br)cc(Br)c1O)C(=O)N2` [10734/C07], the “Fik Kinase %Inhibition” value is given as -2.7%.

As to `O=C1Nc2c(Br)cc(Br)cc2C1=Cc1ccc(Br)s1` [10734/A11], the “Fik Kinase %Inhibition” value is on record as 6.3%.

As to `O=C1Nc2c(Br)cc(Br)cc2C1=Cc1ccc(O)c(Br)c1` [10734/A09], the “Fik Kinase %Inhibition” value is listed as -7.9%.

Consider `CNS(=O)(=O)c1ccc2c(c1)C(=Cc1cc(Cl)ccc1O)C(=O)N2` [10734/D04], for which the “Fik Kinase %Inhibition” value is 6.1%.

Take `COc1c(C)cc(C=C2C(=O)Nc3ccc(S(=O)(=O)N4CCOCC4)cc32)cc1C` [10733/F06]: the “Fik Kinase %Inhibition” value turned out to be 19.3%.

As to `O=C1Nc2c(Br)cc(Br)cc2C1=Cc1cc(Cl)ccc1O` [10734/A04], the “Fik Kinase %Inhibition” value was determined as 0.6%.

Turning to `COc1c(C(C)(C)C)cc(C=C2C(=O)Nc3ccc(S(=O)(=O)Nc4ccc(C(F)(F)F)cc4)cc32)cc1C(C)(C)C` [10733/E04], the “Fik Kinase %Inhibition” value was found to be 2.1%.

For the molecule `CCN(CC)c1ccc(C=C2C(=O)Nc3ccc(I)cc32)c(O)c1` [10734/B05], the “Fik Kinase %Inhibition” value is recorded as -2.3%.

In the case of `COc1c(O)ccc(C=C2C(=O)Nc3ccc(S(=O)(=O)N4CCOCC4)cc32)c1[N+](=O)[O-]` [10733/F11], the “Fik Kinase %Inhibition” value came to 4.1%.

With `CNS(=O)(=O)c1ccc2c(c1)C(=Cc1ccc(Br)s1)C(=O)N2` [10734/D11], the “Fik Kinase %Inhibition” value turned out to be 9.8%.

Regarding `CC(C)(C)c1cc(C=C2C(=O)Nc3ccc(S(=O)(=O)N4CCOCC4)cc32)cc(C(C)(C)C)c1OCc1ccccc1` [10733/F05], the “Fik Kinase %Inhibition” value is listed as 26.2%.

In the case of `O=C1Nc2ccc(S(=O)(=O)Nc3ccc(C(F)(F)F)cc3)cc2C1=Cc1ccc(Cl)c([N+](=O)[O-])c1` [10718/E08], the “Fik Kinase %Inhibition” value is 9.2%.

As to `O=C1Nc2ccc(S(=O)(=O)N3CCOCC3)cc2C1=Cc1cc([N+](=O)[O-])ccc1O` [10733/F10], the “Fik Kinase %Inhibition” value came out at 8.5%.

For the molecule `Cc1c(Br)ccc2c1C(=Cc1cc(Cl)cc(Cl)c1O)C(=O)N2` [10734/C03], the “Fik Kinase %Inhibition” value is listed as -5.6%.

For `Cc1cc(C=C2C(=O)Nc3ccc(S(=O)(=O)N4CCOCC4)cc32)cc(C)c1OCc1ccccc1` [10733/F07], the “Fik Kinase %Inhibition” value worked out at 16.4%.

For `O=C1Nc2ccc(I)cc2C1=Cc1ccc([N+](=O)[O-])cc1` [10734/B06], the “Fik Kinase %Inhibition” value was -0.9%.

Consider `Cc1c(O)ccc(C=C2C(=O)Nc3ccc(S(=O)(=O)Nc4ccc(C(F)(F)F)cc4)cc32)c1O` [10718/E09], for which the “Fik Kinase %Inhibition” value worked out at 0.9%.

As for `O=C1Nc2c(Br)cc(Br)cc2C1=Cc1cc(Br)cc(Br)c1O` [10734/A07], the “Fik Kinase %Inhibition” value is on record as -9.4%.

`O=C1Nc2ccc(I)cc2C1=Cc1cc(Cl)ccc1O` [10734/B04]: the “Fik Kinase %Inhibition” value is 2.8%.

Turning to `O=C1Nc2ccc(S(=O)(=O)Nc3ccc(C(F)(F)F)cc3)cc2C1=Cc1ccco1` [10718/E10], the “Fik Kinase %Inhibition” value was 15.2%.

Take `CNS(=O)(=O)c1ccc2c(c1)C(=Cc1ccc([N+](=O)[O-])cc1)C(=O)N2` [10734/D06]: the “Fik Kinase %Inhibition” value stood at 0.0%.

Consider `O=C1Nc2ccc(I)cc2C1=Cc1cc(Cl)cc(Cl)c1O` [10734/B03], for which the “Fik Kinase %Inhibition” value is recorded as 21.7%.

As to `COc1c([N+](=O)[O-])cc(C=C2C(=O)Nc3ccc(S(=O)(=O)Nc4ccc(C(F)(F)F)cc4)cc32)cc1C(C)(C)C` [10733/E03], the “Fik Kinase %Inhibition” value worked out at 42.6%.

With `COc1c(C(C)(C)C)cc(C=C2C(=O)Nc3ccc(S(=O)(=O)N4CCOCC4)cc32)cc1C(C)(C)C` [10733/F04], the “Fik Kinase %Inhibition” value is 21.4%.

For `CC(C)(C)c1ccc(C=C2C(=O)Nc3ccc(I)cc32)cc1` [10734/B10], the “Fik Kinase %Inhibition” value turned out to be 15.7%.

For `CC(C)(C)c1ccc(C=C2C(=O)Nc3c(Br)cc(Br)cc32)cc1` [10734/A10], the “Fik Kinase %Inhibition” value worked out at 4.4%.

For `COc1c(C)cc(C=C2C(=O)Nc3ccc(CCCl)cc32)cc1C` [10733/G06], the “Fik Kinase %Inhibition” value is 37.0%.
